Measurements reported in paper PMC10487436, “Towards Anticancer and Antibacterial Agents: Design and Synthesis of 1,2,3-Triazol-quinobenzothiazine Derivatives” (International Journal of Molecular Sciences, 2023).
Converted amounts (≈) assume the structure as drawn.

Key:
Type in all cases: cell-based
[1] = tested on: Mycobacterium smegmatis ATCC 700084; test: MIC, broth dilution micro-method, MS; conditions: Mycolicibacterium smegmatis, ATCC700084, 72 h; 3 days at 37 °C
[2] = tested on: Mycobacterium marinum CAMP 5644; test: MIC, broth dilution micro-method, MM; conditions: CAMP5644, 504 h, 21 days at 28 °C
[3] = tested on: SNB-19 (human glioblastoma); test: WST-1 proliferation assay, SNB-19; conditions: Homo sapiens, SNB-19, 72 h exposure
Experimental: (§1) Compounds were evaluated for their antiproliferative activity using three cultured cell lines: A549 (human lung carcinoma, ATCC, Manassas, VA, USA), SNB-19 (human glioblastoma, DSMZ, German Collection of Microorganisms and Cell Cultures), T-47D (human breast cancer, ATCC, Manassas, VA, USA), and NHDF (normal human dermal fibroblasts, ATCC, Manassas, VA, USA). The cultured cells were kept at 37 °C and 5% CO2. The cells were seeded (1 × 10^4 cells/well/100 μL DMEM supplemented with 10% FCS, streptomycin, and penicillin) using 96-well plates (corning). Cells were counted in a hemocytometer (Burker chamber) using a phase contrast Olympus IX50 microscope equipped with a Sony SSC-DC58 AP camera and an Olympus DP10 digital camera.
(§2) The antiproliferative effect of the compounds exerted on cancer and normal cells was determined using the Cell Proliferation Reagent WST-1 assay (Roche Molecular Biochemicals, Mannheim, Germany). This assay is based on a colorimetric method using the enzymatic ability of viable cells to cause the bright, red-colored stable tetrazolium monosodium salt [2-(4-iodophenyl)-3-(4-nitrophenyl)-5-(2,4-disulfophenyl)–2H-tetra-zolium] to transform into the dark, red-colored soluble formazan. […] An increase in the amount of formazan dye formed correlated with the number of metabolically active cells in the culture. The formazan dye produced by metabolically active cells was quantified by absorbance readings at appropriate wavelengths. The examined cells were exposed to the tested compounds (1 mM DMSO stock) for 72 h at various concentrations (0.1–100 μM). The control was performed in order to eliminate the DMSO effect at the concentration used. Cell cultures were incubated with WST-1 (10 μL) for 1 h. The absorbance of the samples was measured against a background control at 450 nm using a microplate reader with a reference wavelength at 600 nm. The obtained results are expressed as the means of at least two independent experiments performed in triplicate. The antiproliferative activity of the tested compounds was compared to that of cisplatinum. The values of IC50 (a concentration of a compound that is required for 50% inhibition) were calculated from the dose-response relationship with respect to control. The results were reported as the mean (±std) of three separate experiments.

[4] = tested on: A549 (human lung carcinoma); test: WST-1 proliferation assay, A549; conditions: Homo sapiens, A549, 72 h exposure
Experimental: as §1, §2

[5] = tested on: T-47D (human breast cancer); test: WST-1 proliferation assay, T47D; conditions: Homo sapiens, T47D, 72 h exposure
Experimental: as §1, §2

[6] = tested on: NHDF (normal human dermal fibroblasts); test: WST-1 proliferation assay, NHDF; conditions: Homo sapiens, NHDF, normal cells, 72 h exposure
Experimental: as §1, §2

[7] = tested on: Staphylococcus aureus ATCC 29213; test: MIC, microtitration broth method, SA; conditions: ATCC29213, 24 h at 37 °C
Experimental: (§3) In vitro antibacterial activity of the synthesized compounds was evaluated against representatives of multidrug-resistant bacteria, three clinical isolates of methicillin-resistant S. aureus: clinical isolates of animal origin, MRSA 63718 (Department of Infectious Diseases and Microbiology, Faculty of Veterinary Medicine, University of Veterinary Sciences Brno, Czech Republic), carrying the mecA gene; and MRSA SA 630 and MRSA SA 3202 [52] (National Institute of Public Health, Prague, Czech Republic), both of human origin. […] Vancomycin- and methicillin-susceptible S. aureus ATCC 29213 and vancomycin-susceptible Enterococcus faecalis ATCC 29212, obtained from the American Type Culture Collection, were used as the reference and quality control strains. Three vanA gene-carrying vancomycin-resistant isolates of E. faecalis (VRE 342B, VRE 368, VRE 725B) were provided by Oravcova et al..
(§4) The minimum inhibitory concentrations (MICs) were evaluated by the microtitration broth method according to the CLSI, with some modifications. The compounds were dissolved in DMSO (Sigma, St. Louis, MO, USA) to obtain a concentration of […] and diluted in a microtitration plate in an appropriate medium, i.e., Cation Adjusted Mueller–Hinton Broth (CaMH, Oxoid, Basingstoke, UK) for staphylococci, and Brain Heart Infusion Broth (BHI, Oxoid) for enterococci, to reach the final concentration of 256–0.125 µg/mL. Microtiter plates were inoculated with test micro-organisms so that the final concentration of bacterial cells was 10^5. […] A drug-free control and a sterility control were included. The plates were incubated for 24 h at 37 °C for staphylococci and enterococci. […] The experiments were repeated three times.

[8] = tested on: methicillin-resistant S. aureus SA 3202; test: MIC, microtitration broth method, MRSA1; conditions: Staphylococcus aureus; 24 h at 37 °C
Experimental: as §3, §4

[9] = tested on: methicillin-resistant S. aureus SA 630; test: MIC, microtitration broth method, MRSA2; conditions: Staphylococcus aureus; 24 h at 37 °C
Experimental: as §3, §4

[10] = tested on: methicillin-resistant S. aureus 63718; test: MIC, microtitration broth method, MRSA3; conditions: Staphylococcus aureus; 24 h at 37 °C
Experimental: as §3, §4

[11] = tested on: Enterococcus faecalis ATCC 29213; test: MIC, microtitration broth method, EF; conditions: ATCC29213, 24 h at 37 °C
[12] = tested on: vancomycin-resistant E. faecalis VRE 342B; test: MIC, microtitration broth method, VRE1; conditions: Enterococcus faecalis, 24 h at 37 °C
Experimental: as §3, §4

[13] = tested on: vancomycin-resistant E. faecalis VRE 368; test: MIC, microtitration broth method, VRE2; conditions: Enterococcus faecalis, 24 h at 37 °C
Experimental: as §3, §4

[14] = tested on: vancomycin-resistant E. faecalis VRE 725B; test: MIC, microtitration broth method, VRE3; conditions: Enterococcus faecalis, 24 h at 37 °C
Experimental: as §3, §4

[15] = tested on: methicillin-resistant S. aureus 63718; test: MBC, agar aliquot subculture method, MRSA3; conditions: Staphylococcus aureus
Experimental: (§5) For the above-mentioned strains/isolates, the agar aliquot subculture method was used as a test for bactericidal agents. After the MIC value determination, the inoculum was transferred to CaMH (Oxoid) for staphylococci, BHI (Oxoid) for enterococci, and Middlebrook 7H9 (Difco) for mycobacteria medium using a multipoint inoculator. As indicated above, the plates were incubated on a thermostat at 37 °C for the appropriate time for each micro-organism. The lowest concentration of test compound at which ≤5 colonies were obtained was then evaluated as MBC, corresponding to a 99.9% decrease in CFU relative to the original inoculum.

[16] = tested on: Mycobacterium smegmatis ATCC 700084; test: MBC, agar aliquot subculture method, MS; conditions: Mycolicibacterium smegmatis, ATCC700084
Experimental: as §5

[17] = tested on: Mycobacterium marinum CAMP 5644; test: MBC, agar aliquot subculture method, MM; conditions: CAMP5644
Experimental: as §5

Compound | MIC [1] | MIC [2] | IC50 [3] | IC50 [4] | IC50 [5] | MIC [7] | MIC [8] | MIC [9] | MIC [10] | MIC [11] | MIC [12] | MIC [13] | MIC [14] | IC50 [6] | MBC [15] | MBC [16] | MBC [17]
CO[C@H]1/C=C/O[C@@]2(C)Oc3c(C)c(O)c4c(O)c(c(/C=N/N5CCN(C)CC5)c(O)c4c3C2=O)NC(=O)/C(C)=C\C=C\[C@H](C)[C@H](O)[C@@H](C)[C@@H](O)[C@@H](C)[C@H](OC(C)=O)[C@@H]1C [RIF, rifampicin, reference compound] | 19.4 µM (≈ 16 µg/mL) | 2.43 µM (≈ 2 µg/mL) | – | – | – | – | – | – | – | – | – | – | – | – | – | – | –
C=CCn1cc(COc2ccc3c(c2)Nc2c(c[n+](C)c4ccccc24)S3)nn1 [2b, 5-Methyl-10-(1-allyl-1H-1,2,3-triazol-4-yl)methoxy-12H-quino [3,4-b][1,4]benzothiazinium chloride] | 65.5 µM | 65.5 µM | 2.7 ± 0.4 µM | 1.8 ± 0.2 µM | 5.3 ± 0.6 µM | 524 µM | > 524 µM | > 524 µM | 262 µM | > 524 µM | > 524 µM | > 524 µM | 524 µM | > 100 µM | 262 µM | 65.5 µM | 65.5 µM
C[n+]1cc2c(c3ccccc31)Nc1c(OCc3cn(Cc4ccc([N+](=O)[O-])cc4)nn3)cccc1S2 [2i, 5-Methyl-11-[1-(4-nitrobenzyl)-1H-1,2,3-triazol-4-yl]methoxy-12H-quino [3,4-b][1,4]benzothiazinium chloride] | 65.5 µM | 131 µM | 4.9 ± 0.3 µM | 9 ± 0.4 µM | 2.8 ± 0.2 µM | 524 µM | 524 µM | 524 µM | 524 µM | > 524 µM | > 524 µM | > 524 µM | 524 µM | > 100 µM | – | 65.5 µM | 131 µM
C=CCn1cc(COc2cccc3c2Nc2c(c[n+](C)c4ccccc24)S3)nn1 [2c, 5-Methyl-11-(1-allyl-1H-1,2,3-triazol-4-yl)methoxy-12H-quino [3,4-b][1,4]benzothiazinium chloride] | 65.5 µM | 131 µM | 4.1 ± 0.5 µM | 5.7 ± 0.9 µM | 7.6 ± 0.4 µM | 524 µM | 524 µM | 524 µM | 524 µM | > 524 µM | > 524 µM | > 524 µM | 524 µM | > 100 µM | – | 65.5 µM | 131 µM
COc1cccc2c1C(=O)c1c(O)c3c(c(O)c1C2=O)C[C@@](O)(C(=O)CO)C[C@@H]3O[C@H]1C[C@H](N)[C@H](O)[C@H](C)O1 [DOX, doxorubicin, reference compound] | – | – | 1.7 ± 0.2 µM | 1.3 ± 0.1 µM | 0.8 ± 0.1 µM | – | – | – | – | – | – | – | – | 5.5 ± 0.5 µM | – | – | –

Continued, in another order:

MIC [1] | MIC [2] | IC50 [3] | IC50 [4] | IC50 [5] | MIC [7] | MIC [8] | MIC [9] | MIC [10] | MIC [11] | MIC [12] | MIC [13] | MIC [14] | Compound | IC50 [6] | MBC [15] | MBC [16] | MBC [17]
– | – | > 100 µM | > 100 µM | > 100 µM | – | – | – | – | – | – | – | – | C=CCn1cc(COc2ccccc2N)nn1 [5a, 1-allyl-4-(2-aminophenoxy)methyl-1H-1,2,3-triazole] | > 100 µM | – | – | –
– | – | > 100 µM | > 100 µM | > 100 µM | – | – | – | – | – | – | – | – | Nc1ccc(OCc2cn(Cc3ccc([N+](=O)[O-])cc3)nn2)cc1 [5i, 1-(4-nitrobenzyl)-4-(4-aminophenoxy)methyl-1H-1,2,3-triazole] | > 100 µM | – | – | –
